Reference: ChEMBL document CHEMBL1158366, “Gallium(III) complexes of 2-pyridineformamide thiosemicarbazones: cytotoxic activity against malignant glioblastoma” (Eur J Med Chem, 2009)
pIC50: −log10 of the molar value. The source made the active and inactive calls. No cut-off for these calls is given here.

What was measured:
[1] = Toxicity in human RBC membrane assessed as hemolysis after 1 hr by spectrophotometry; format: cell-based, Erythrocyte; conditions: red blood cells (RBC membrane)
[2] = Cytotoxicity against human T98 cells expressing mutant p53 protein after 48 hrs by MTT assay; format: functional, cell-based; conditions: T98, 48 h
[3] = Cytotoxicity against rat RT2 cells expressing wild type p53 protein after 48 hrs by MTT assay; format: functional, cell-based; conditions: RT2, 48 h
[4] = tested on: T98; assay: Induction of apoptosis in human T98 cells expressing mutant p53 protein assessed as DNA fragmentation at 100 uM after 48 hrs using DAPI staining by UV/fluorescence microscopy; format: functional, cell-based
[5] = tested on: RT2; assay: Induction of apoptosis in rat RT2 cells expressing wild type p53 protein assessed as DNA fragmentation at 100 uM after 48 hrs using DAPI staining by UV/fluorescence microscopy; format: functional, cell-based
[6] = tested on: T98; assay: Induction of apoptosis in human T98 cells expressing mutant p53 protein assessed as cell membrane morphological changes at 100 uM after 48 hrs by phase contrast microscopy; format: functional, cell-based
[7] = tested on: RT2; assay: Induction of apoptosis in rat RT2 cells expressing wild type p53 protein assessed as cell membrane morphological changes at 100 uM after 48 hrs by phase contrast microscopy; format: functional, cell-based

Row | SMILES | IC50 at 1 hr [1] [µM] | pIC50 [2] | pIC50 [3] | Activity [4] | Activity [5] | Activity [6] | Activity [7]
1 | CCNC(=S)N/N=C(\N)c1ccccn1 | > 1000 | 3.84 | 3.44 | – | – | – | –
2 | CNC(=S)N/N=C(\N)c1ccccn1 | > 1000 | 4.49 | 4.91 | Active | Active | Active | Active
3 | NC(=S)N/N=C(\N)c1ccccn1 | > 1000 | 5.44 | 5.14 | – | – | – | –
